In brackets after ≈: the same amount, converted by molar mass. Where two headings read alike, the source gives them in different places.
Experiments:
[1] = tested on: Capan-1 (pancreatic adenocarcinoma); experiment: Antiproliferative screening (cytostatic activity); type: cell-based; conditions: Homo sapiens, CAPAN-1, 72 h, read-out: IC50 Capan-1
Description: (§1) All human tumor cell lines were acquired from the American Type Culture Collection (ATCC, Manassas, VA, USA), except for the DND-41 cell line which was purchased from the Deutsche Sammlung von Mikroorganismen und Zellkulturen (DSMZ Leibniz-Institut, Braunschweig, Germany) and the Hap1 cell line which was purchased from Horizon Discovery (Waterbeach, UK). […] All media were supplemented with 10% FBS (HyClone, GE Healthcare Life Sciences, USA). […] After overnight incubation, cells were treated with test compounds at four different concentrations ranging from 100 to 0.8 µM. […] Images were taken every 3 h, with one field image per well under 10× magnification. All compounds were tested with duplicate data points and averaged.

[2] = tested on: HCT-116 (colorectal carcinoma); experiment: Antiproliferative screening (cytostatic activity); type: cell-based; conditions: Homo sapiens, HCT-116, 72 h, read-out: IC50 HCT-116
Description: as §1

[3] = tested on: K-562 (chronic myeloid leukemia); experiment: Antiproliferative screening (cytostatic activity); type: cell-based; conditions: Homo sapiens, K562, 72 h, read-out: IC50 K-562
Description: as §1

MM.1S (multiple myeloma) = experiment: Antiproliferative screening (cytostatic activity); type: cell-based; conditions: Homo sapiens, MM1.S, 72 h, read-out: IC50 MM.1S
Description: as §1

[4] = tested on: NCI-H460 (lung carcinoma); experiment: Antiproliferative screening (cytostatic activity); type: cell-based; conditions: Homo sapiens, NCI-H460, 72 h, read-out: IC50 NCI-H460
Description: as §1

[5] = tested on: Z-138 (non-Hodgkin lymphoma); experiment: Antiproliferative screening (cytostatic activity); type: cell-based; conditions: Homo sapiens, Z-138, 72 h, read-out: IC50 Z-138
Description: as §1

[6] = tested on: HL-60 (acute myeloid leukemia); experiment: Antiproliferative screening (cytostatic activity); type: cell-based; conditions: Homo sapiens, HL-60, 72 h, read-out: IC50 HL-60
Description: (§2) Cytostatic activity was evaluated in vitro on nine different types of human tumor cell lines: Capan-1, Hap1, HCT-116, and NCI-H460, as well as hematological tumors such as DND-41, HL-60, K-562, MM.1S and Z-138 as described previously. All human tumor cell lines were acquired from the American Type Culture Collection (ATCC, Manassas, VA, USA), except for the DND-41 cell line which was purchased from the Deutsche Sammlung von Mikroorganismen und Zellkulturen (DSMZ Leibniz-Institut, Braunschweig, Germany) and the Hap1 cell line which was purchased from Horizon Discovery (Waterbeach, UK). Capan-1, Hap1, HL-60, K-562, Z-138, MM.1S and DND-41 were cultured in Iscove′s Modified Dulbecco′s Medium (IMDM, Gibco Life Technologies, Gaithersburg, MD, USA), HCT-116 were grown in McCoy′s 5A Medium (Gibco Life Technologies) and NCI-H460 were cultured in RPMI (Gibco Life Technologies). All media were supplemented with 10% FBS (HyClone, GE Healthcare Life Sciences, USA). Adherent cell lines HCT-116, Hap1, NCI-H460, and Capan-1 cells were seeded at a density between 400 and 1250 cells per well, in 384-well, black-walled, clear-bottomed tissue culture plates (Greiner Bio-One, Kremsmünster, Germany). After overnight incubation, cells were treated with test compounds at four different concentrations ranging from 100 to 0.8 µM. Suspension cell lines HL-60, K-562, Z-138, MM.1S, and DND-41 were seeded at densities ranging from 3000 to 10,000 cells per well in 384-well, black-walled, clear-bottomed tissue culture plates containing test compounds at the same four concentrations. The plates were incubated and monitored at 37 °C for 72 h in an IncuCyte (Essen BioScience Inc., Ann Arbor, MI, USA) for real-time imaging. Images were taken every 3 h, with one field image per well under 10× magnification. All compounds were tested with duplicate data points and averaged. […]

[7] = tested on: Hap1 (chronic myeloid leukemia); experiment: Antiproliferative screening (cytostatic activity); type: cell-based; conditions: Homo sapiens, HAP1, 72 h, read-out: IC50 Hap1
Description: as §2

[8] = tested on: DND-41 (acute lymphoblastic leukemia); experiment: Antiproliferative screening (cytostatic activity); type: cell-based, human; conditions: Homo sapiens, DND41, 72 h, 72 h, read-out: IC50 DND-41
Description: as §2

[9] = tested on: Mycobacterium tuberculosis H37Ra; experiment: Antimycobacterial susceptibility assay (MIC determination); type: cell-based; conditions: 168 h, 7 days, 37 °C, alamarBlue
Description: At log phase growth, a culture sample (10 mL) was centrifuged at 15,000 rpm/20 min using a bench-top centrifuge (MPW-65R, MPW Med Instruments, Poland). Following removal of the supernatant, the pellet was washed in fresh Middlebrook 7H9GC broth and re-suspended in fresh, ODAC-supplemented MB (10 mL). The turbidity was adjusted to match McFarland standard No. 1 (3 × 10^8 CFU) with MB broth. A further 1:20 dilution of the culture was then performed in MB broth. The antimicrobial susceptibility of M. tuberculosis was investigated in a 96-well plate format. In these experiments, sterile deionised water (300 µl) was added to all outer-perimeter wells of the plates to minimize evaporation of the medium in the test wells during incubation. Each evaluated compound (100 µL) was incubated with M. tuberculosis (100 µl). Dilutions of each compound were prepared in duplicate. For all synthesized compounds, final concentrations ranged from 1000 μg/mL to 8 μg/mL. All compounds were dissolved in DMSO, and subsequent dilutions were made in supplemented MB. […] Following incubation, 10% of alamarBlue (Difco, Lawrence, KS, USA) was mixed into each well, and readings at 570 nm and 600 nm were taken, initially for background subtraction and subsequently after 24 h reincubation. […] For non-interfering compounds, a blue colour in the well was interpreted as the absence of growth, and a pink colour was scored as growth.

[10] = tested on: Mycobacterium marinum CAMP 5644; experiment: as above; type: cell-based; conditions: Mycobacterium marinum, CAMP5644, 504 h
Description: The broth dilution micro-method in Middlebrook 7H9 medium (Difco, Lawrence, KS, USA) supplemented with ADC Enrichment (Becton, Dickinson and Comp.) was used to determine MIC as previously described. […] Bacterial inocula were prepared by transferring colonies from culture to sterile water. The cell density was adjusted to 0.5 McFarland units using a densitometer (Densi-La-Meter, LIAP, Riga, Latvia). The final inoculum was made by 1:1000 dilution of the suspension with sterile water. Drug-free controls, sterility controls and controls consisted of medium and DMSO (Sigma-Aldrich, St. Louis, MO, USA) alone were included. […] Ciprofloxacin (CIP), rifampicin (RIF) and isoniazid (INH) (Sigma-Aldrich, St. Louis, MO, USA) were used as the standards.

[11] = DXT and STS values in nM (footnote)

With `CC(=O)O[C@@]12CO[C@@H]1C[C@H](O)[C@@]1(C)C(=O)[C@H](O)C3=C(C)[C@@H](OC(=O)[C@H](O)[C@@H](NC(=O)OC(C)(C)C)c4ccccc4)C[C@@](O)([C@@H](OC(=O)c4ccccc4)[C@H]21)C3(C)C` [DXT, docetaxel, reference compound] the IC50 [1, 11] was 0.75 nM, the IC50 [2, 11] was 7.66 nM and the IC50 [3, 11] was 1.22 nM. It also gave an IC50 (MM.1S (multiple myeloma); [11]) of 3.38 nM, an IC50 [4, 11] of 1.3 nM and an IC50 [5, 11] of 5.42 nM. It also gave an IC50 [6, 11] of 1.24 nM, an IC50 [7, 11] of 1.17 nM and an IC50 [8, 11] of 0.94 nM.
For `COc1cc(NC(C)CCCNC(=O)CCC(=O)Nc2ccc(F)cc2)c2ncccc2c1` (centres unmarked) [Compound 5b, N-(4-Fluorophenyl)-N′-{4-[(6-methoxyquinolin-8-yl)amino]pentyl}butanediamide], the melting point was 118 to 120 °C.
`COc1cc(NC(C)CCCNC(=O)CCC(=O)Nc2cccc(Cl)c2)c2ncccc2c1` (centres unmarked) [Compound 5c, N-(3-Chlorophenyl)-N′-{4-[(6-methoxyquinolin-8-yl)amino]pentyl}butanediamide] showed a melting point of 156 to 158 °C.
Work on `COc1cc(NC(C)CCCNC(=O)CCC(=O)Nc2cccc(C(F)(F)F)c2)c2ncccc2c1` (centres unmarked) [Compound 5e, N′-{4-[(6-Methoxyquinolin-8-yl)amino]pentyl}-N-[3-(trifluoromethyl)phenyl]butanediamide] yielded a melting point of 146 to 149 °C.
For `COc1cc([C@@H]2c3cc4c(cc3[C@@H](O[C@@H]3O[C@@H]5CO[C@@H](C)O[C@H]5[C@H](O)[C@H]3O)[C@H]3COC(=O)[C@H]23)OCO4)cc(OC)c1O` [EPEG, etoposide, reference compound], the IC50 ([1]; IncuCyte imaging) was 150 nM, the IC50 ([2]; IncuCyte imaging) was 1350 nM and the IC50 ([3]; IncuCyte imaging) was 10 nM. For the same compound, the IC50 (MM.1S (multiple myeloma); IncuCyte imaging) was 970 nM, the IC50 ([4]; IncuCyte imaging) was 90 nM and the IC50 ([5]; IncuCyte imaging) was 20 nM. It also gave an IC50 ([6]; IncuCyte imaging) of 30 nM, an IC50 ([7]; IncuCyte imaging) of 40 nM and an IC50 ([8]; IncuCyte imaging) of 30 nM.
With `NNC(=O)c1ccncc1` [INH, isoniazid, reference compound] the MIC [9] was 5 µg/mL (≈ 36.5 µM) and the MIC [10] was 64 µg/mL (≈ 467 µM).
With `COc1cc(NC(C)CCCNC(=O)CCC(=O)Nc2cccc(F)c2)c2ncccc2c1` (centres unmarked) [Compound 5a, N-(3-Fluorophenyl)-N′-{4-[(6-methoxyquinolin-8-yl)amino]pentyl}butanediamide] the melting point was 140 to 142 °C.
For `COc1cc(NC(C)CCCNC(=O)CCC(=O)Nc2ccc(C(F)(F)F)cc2)c2ncccc2c1` (centres unmarked) [Compound 5f, N′-{4-[(6-Methoxyquinolin-8-yl)amino]pentyl}-N-[4-(trifluoromethyl)phenyl]butanediamide], the melting point was 163 to 165 °C.
With `CN[C@@H]1C[C@H]2O[C@@](C)([C@@H]1OC)n1c3ccccc3c3c4c(c5c6ccccc6n2c5c31)C(=O)NC4` [STS, staurosporine, reference compound] the IC50 [6, 11] was 13.1 nM, the IC50 [7, 11] was 3.56 nM and the IC50 [8, 11] was 6.96 nM.
With `CO[C@H]1/C=C/O[C@@]2(C)Oc3c(C)c(O)c4c(O)c(c(/C=N/N5CCN(C)CC5)c(O)c4c3C2=O)NC(=O)/C(C)=C\C=C\[C@H](C)[C@H](O)[C@@H](C)[C@@H](O)[C@@H](C)[C@H](OC(C)=O)[C@@H]1C` [RIF, rifampicin, reference compound] the MIC [10] was 2.2 µg/mL (≈ 2.67 µM).
Work on `COc1cc(NC(C)CCCNC(=O)CCC(=O)Nc2ccc(Cl)cc2)c2ncccc2c1` (centres unmarked) [Compound 5d, N-(4-Chlorophenyl)-N′-{4-[(6-methoxyquinolin-8-yl)amino]pentyl}butanediamide] yielded a melting point of 152 to 153 °C.
For `O=C(O)c1cn(C2CC2)c2cc(N3CCNCC3)c(F)cc2c1=O` [CIP, ciprofloxacin, reference compound], the MIC [9] was 16 µg/mL (≈ 48.3 µM) and the MIC [10] was 0.3 µg/mL (≈ 0.905 µM).

Source: article PMC6100582 (Molecules : A Journal of Synthetic Chemistry and Natural …, 2018)
